The values below are quoted from earlier work in US20090069345A1, “Pharmaceutically Stable Compound Consisting of Timolol, Dorzolamide and Brimonidine” (priority 2007, published 2009).

The test system of one data set is eye of a rabbit. As to conditions: concentrations above those normally used in formulations.
The conditions of data set [1]: intravenous injection, first 3 hours.

With Benzalkonium chloride, the “toxicity to the eye” value with eye of a rabbit is “damaging”.

With `OC[C@@H](O)[C@@H](O)[C@H](O)[C@H](O)CO` [Mannitol], the “dose excreted in urine” value in data set [1] is “about 80%”.
